In patent US9561212B2, “Hepatitis C virus inhibitors” (BRISTOL-MYERS SQUIBB COMPANY, priority 2012, dated 2017):
Read-outs that look alike come from different tables or passages of the source.

Tested on: HCV 1b genotype
Test: microbe, parasite or virus in culture
Assay type: cell-based, Hepatitis C virus
[1] = Hepatitis C virus, HCV 1b replicon, read-out: 1b (μM): EC50 (Effective 50% inhibitory concentration) against the HCV 1b genotype
[2] = Hepatitis C virus, HCV 1b replicon, read-out: Range: EC50 ranges against HCV 1b
[3] = HCV 1b replicon, read-out: Range: EC50 ranges against HCV 1b

Row | Compound | EC50 [1] [nM] | EC50 [2] [nM] | EC50 [3] [nM] | further results
1 | COC(=O)NC(C(=O)N1CCC[C@H]1c1nc(-c2ccc(-c3c[nH]c([C@@H]4CCCN4C(=O)C(NC(=O)OC)C4CCOC5(CC5)C4)n3)cc2)c[nH]1)C1CCOC2(CC2)C1 (stereo partly drawn) [Example QC14, dimethyl (benzene-1,4-diylbis(1H-imidazole-4,2-diyl(2S)pyrrolidine-2,1-diyl(1-(4-oxaspiro[2.5]oct-7-yl)-2-oxoethane-2,1-diyl)))biscarbamate] | 14.5 | 0.9 to 700 | – | –
2 | COC(=O)N[C@H](C(=O)N1[C@@H](C)CC[C@H]1c1ncc(-c2ccc(-c3ccc(-c4cnc([C@@H]5CC[C@H](C)N5C(=O)[C@@H](NC(=O)OC)[C@H]5C[C@@H](C)O[C@H](C6CC6)C5)[nH]4)cc3)cc2)[nH]1)[C@H]1C[C@@H](C)O[C@H](C2CC2)C1 [Example 9.4, dimethyl ((R,S,S,1S,1′S)-((2S,2′S,5S,5′S)-5,5′-(5,5′-([1,1′-biphenyl]-4,4′-diyl)bis(1H-imidazole-5,2-diyl))bis(2-methylpyrrolidine-5,1-diyl))bis(1-((2S,4S,6R)-2-cyclopropyl-6-methyltetrahydro-2H-pyran-4-yl)-2-oxoethane-2,1-diyl))dicarbamate] | 0.0093 | 0.00501 to 0.1 | – | –
3 | COC(=O)NC(C(=O)N1C(c2nc(Cl)c(-c3ccc(-c4ccc(-c5[nH]c(C6CC7CC7N6C(=O)C(NC(=O)OC)C6CCOC7(CC7)C6)nc5Cl)cc4)cc3)[nH]2)CC2CC21)C1CCOC2(CC2)C1 [OL5, dimethyl (((1R,1′R,3S,3′S,5R,5′R)-3,3′-(5,5′-([1,1′-biphenyl]-4,4′-diyl)bis(4-chloro-1H-imidazole-5,2-diyl))bis(2-azabicyclo[3.1.0]hexane-3,2-diyl))bis(2-oxo-1-(4-oxaspiro[2.5]octan-7-yl)ethane-2,1-diyl))dicarbamate] | – | – | – | EC50 (read-out: Range: EC50 ranges against HCV 1b): 0.00501 to 0.1 nM
4 | COC(=O)NC(C(=O)N1[C@@H](C)CC[C@H]1c1ncc(-c2ccc(-c3ccc(-c4cnc([C@@H]5CC[C@H](C)N5C(=O)C(NC(=O)OC)C5CCOC6(CCC6)C5)[nH]4)cc3)cc2)[nH]1)C1CCOC2(CCC2)C1 (single isomer, unassigned) [Example 2.4] | – | – | 0.00501 to 0.1 | –
5 | dimethyl (1H,1′H-7,7′-binaphtho[1,2-d]imidazole-2,2′-diylbis((2S)-2,1-pyrrolidinediyl(1-(4-oxaspiro[2.5]oct-7-yl)-2-oxo-2,1-ethanediyl)))biscarbamate [QC13] | – | – | 0.00501 to 0.1 | –
6 | COC(=O)NC(C(=O)N1CCC[C@H]1c1nc2cc(-c3ccc(Oc4cccc5[nH]c([C@@H]6CCCN6C(=O)C(NC(=O)OC)C6CCOC7(CC7)C6)nc45)cc3)ccc2[nH]1)C1CCOC2(CC2)C1 (stereo partly drawn) [QC15, methyl (2-((2S)-2-(5-(4-((2-((2S)-1-(((methoxycarbonyl)amino)(4-oxaspiro[2.5]oct-7-yl)acetyl)pyrrolidin-2-yl)-1H-benzimidazol-4-yl)oxy)phenyl)-1H-benzimidazol-2-yl)pyrrolidin-1-yl)-1-(4-oxaspiro[2.5]oct-7-yl)-2-oxoethyl)carbamate] | – | 0.00501 to 0.1 | – | –
